In patent US20120129843A1, “PYRIDYL-THIAZOLYL INHIBITORS OF PRO-MATRIX METALLOPROTEINASE ACTIVATION” (priority 2010, published 2012):
pIC50, pKd: −log10 of the molar value. Counter-ions that a name gives are not always drawn.

Experiments:
[1] = biological target: T1, proMMP9(20-445;ΔFnII) (SEQ ID NO:6) (Homo sapiens, UniProt P14780, DEL216-390); test: ThermoFluor binding assay with proMMP9(20-445;ΔFnII)
T1 construct: start methionine (N); made in house; host or cells: E. coli BL21(DE3) RIL
T1 sequence (P14780 with tags, fused parts or gaps DEL216-390): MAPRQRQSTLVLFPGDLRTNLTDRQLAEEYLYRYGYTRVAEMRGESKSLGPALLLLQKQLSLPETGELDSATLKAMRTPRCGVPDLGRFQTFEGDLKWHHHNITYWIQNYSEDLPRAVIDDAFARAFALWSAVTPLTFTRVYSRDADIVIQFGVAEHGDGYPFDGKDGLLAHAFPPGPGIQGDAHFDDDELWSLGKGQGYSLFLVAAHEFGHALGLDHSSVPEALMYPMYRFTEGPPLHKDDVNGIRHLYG
Protocol: The ThermoFluor® (TF) assay is a 384-well plate-based binding assay that measures thermal stability of proteins (Biomol Screen 2001, 6, 429-40; Biochemistry 2005, 44, 5258-66). The experiments were carried out using instruments available from Johnson & Johnson Pharmaceutical Research & Development, LLC. TF dye used in all experiments was […] (1,8-ANS) (Invitrogen: A-47).
Compounds were arranged in a pre-dispensed plate (Greiner Bio-one: 781280), wherein compounds were serially diluted in 100% DMSO across 11 columns within a series. Columns 12 and 24 were used as DMSO reference and contained no compound. For multiple compound concentration-response experiments, the compound aliquots ([…]) were robotically predispensed directly into black 384-well polypropylene PCR microplates (Abgene: TF-0384/k) using a Cartesian Hummingbird liquid handler (DigiLab, Holliston, Mass.). Following compound dispense, protein and dye solutions were added to achieve the final assay volume of 3 μL. The assay solutions were overlayed with 1 μL of silicone oil (Fluka, type DC 200: 85411) to prevent evaporation.
Assay plates were robotically loaded onto a thermostatically controlled PCR-type thermal block and then heated from 40 to 90° C. at a ramp-rate of 1° C./min for all experiments. Fluorescence was measured by continuous illumination with UV light (Hamamatsu LC6) supplied via fiber optics and filtered through a band-pass filter (380-400 nm; >60D cutoff). Fluorescence emission of the entire 384-well plate was detected by measuring light intensity using a CCD camera (Sensys, Roper Scientific) filtered to detect 500±25 nm, resulting in simultaneous and independent readings of all 384 wells. A single image with 20-sec exposure time was collected at each temperature, and the sum of the pixel intensity in a given area of the assay plate was recorded vs temperature and fit to standard equations to yield the Tm (J Biomol Screen 2001, 6, 429-40).
Thermodynamic parameters necessary for fitting compound binding for each proMMP were estimated by differential scanning calorimetry (DSC) and from ThermoFluor® data. The heat capacity of unfolding for each protein was estimated from the molecular weight and from ThermoFluor® dosing data.
ThermoFluor® with proMMP9(20-445;ΔFnII) (SEQ ID NO:6)
The protein sample preparations included a desalting buffer exchange step via a PD-10 gravity column (GE Healthcare). The desalting buffer exchange was performed prior to diluting the protein to the final assay concentration of 2.8 μM proMMP9(20-445;ΔFnII) (SEQ ID NO:6). The concentration of proMMP9(20-445;ΔFnII) (SEQ ID NO:6) was determined spectrophotometrically based on a calculated extinction coefficient of ε280=39880 M^−1cm^−1, a calculated molecular weight of 28.2 kDa, and calculated pI of 5.5. ThermoFluor® reference conditions were define as follows: 80 μg/mL (2.8 μM) proMMP9(20-445;ΔFnII) (SEQ ID NO:6), 50 μM 1,8-ANS, pH 7.0 Buffer (50 mM HEPES pH 7.0, 100 mM NaCl, 0.001% Tween-20, 2.5 mM MgCl2, 300 μM CaCl2). The thermodynamic parameters for proMMP9(20-445;ΔFnII) (SEQ ID NO:6) are as follows: Tm (° C.)=72 (+/−0.1), ΔUH(Tm) (cal mol^−1)=160000(+/−5000), ΔUS(Tm) (cal mol^−1 K^−1)=434, ΔUCp (cal mol^−1 K^−1)=2400.

[2] = biological target: T2, full-length proMMP9(1-707) (SEQ ID NO:1), activation by catalytic MMP3 (Homo sapiens, UniProt P14780, R574P); test: proMMP9/MMP3 P126 Activation Assay; assay type: biochemical
T2 construct: made in house; host or cells: HEK293 (proMMP9, secreted); E. coli (MMP3)
Protocol: proMMP9/MMP3 P126 Activation Assay
The reaction volume was 50 μL. […] Reactivity of residual MMP3 towards P-126 substrate was minimal under these conditions.

T2 sequence (P14780 20-707 R574P): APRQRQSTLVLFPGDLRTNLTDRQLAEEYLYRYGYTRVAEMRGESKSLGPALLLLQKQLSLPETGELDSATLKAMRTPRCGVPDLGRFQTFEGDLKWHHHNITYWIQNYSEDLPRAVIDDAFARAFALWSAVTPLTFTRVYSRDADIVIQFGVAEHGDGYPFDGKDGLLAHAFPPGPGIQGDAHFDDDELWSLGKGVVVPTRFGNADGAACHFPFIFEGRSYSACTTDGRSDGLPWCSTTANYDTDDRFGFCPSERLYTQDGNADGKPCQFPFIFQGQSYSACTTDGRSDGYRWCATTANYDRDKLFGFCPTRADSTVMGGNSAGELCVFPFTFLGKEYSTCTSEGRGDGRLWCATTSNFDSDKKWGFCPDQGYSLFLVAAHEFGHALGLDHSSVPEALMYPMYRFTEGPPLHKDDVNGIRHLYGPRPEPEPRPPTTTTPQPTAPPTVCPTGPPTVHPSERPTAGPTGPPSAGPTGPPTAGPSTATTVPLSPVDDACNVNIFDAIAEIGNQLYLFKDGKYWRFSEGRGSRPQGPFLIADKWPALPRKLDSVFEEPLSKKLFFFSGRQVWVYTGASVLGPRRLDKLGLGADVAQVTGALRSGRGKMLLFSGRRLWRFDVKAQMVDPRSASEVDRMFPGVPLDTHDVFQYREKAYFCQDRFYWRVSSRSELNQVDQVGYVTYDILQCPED

| pKd [1] | pIC50 [2] | SMILES |
| --- | --- | --- |
| 6.96 | 6.62 | CCN1CCC(NC(=O)c2ccc(-c3csc(Nc4cc(S(N)(=O)=O)ccc4OC(C)C)n3)cn2)CC1 [Example 57, 5-[2-(2-Isopropoxy-5-sulfamoyl-phenylamino)-thiazol-4-yl]-pyridine-2-carboxylic acid (1-ethyl-piperidin-4-yl)-amide.TFA] |
|  | 6.52 | CC(C)Oc1ccc(S(N)(=O)=O)cc1Nc1nc(-c2ccc(N3CCN(C4CC4)CC3)nc2)cs1 [Example 61, 3-((4-(6-(4-Cyclopropylpiperazin-1-yl)pyridin-3-yl)thiazol-2-yl)amino)-4-isopropoxybenzenesulfonamide.TFA] |
| 7.16 | 6.68 | CC(=O)N1CCN(c2ccc(-c3csc(Nc4cc(S(N)(=O)=O)ccc4OC(C)C)n3)cn2)CC1 [Example 65, 3-((4-(6-(4-Acetylpiperazin-1-yl)pyridin-3-yl)thiazol-2-yl)amino)-4-isopropoxybenzenesulfonamide.TFA] |
| 6.51 | < 4.70 | CC(C)Oc1ccc(S(N)(=O)=O)cc1Nc1nc(-c2ccc(N3CCN(CCC(F)(F)F)CC3)nc2)cs1 [Example 66, 4-Isopropoxy-3-((4-(6-(4-(3,3,3-trifluoropropyl)piperazin-1-yl)pyridin-3-yl)thiazol-2-yl)amino)benzenesulfonamide.TFA] |
| 7.15 | 6.89 | CC1CN(c2ccc(-c3csc(Nc4cc(S(N)(=O)=O)ccc4OC(C)C)n3)cn2)CC(C)N1 (centres unmarked) [Example 67, 3-((4-(6-(3,5-Dimethylpiperazin-1-yl)pyridin-3-yl)thiazol-2-yl)amino)-4-isopropoxybenzenesulfonamide.TFA] |
| 7.15 | 6.89 | CC(C)Oc1ccc(S(N)(=O)=O)cc1Nc1nc(-c2ccc(N3C[C@@H](C)N[C@@H](C)C3)nc2)cs1 [Example 68, 3-((4-(6-(cis-3,5-Dimethylpiperazin-1-yl)pyridin-3-yl)thiazol-2-yl)amino)-4-isopropoxybenzenesulfonamide.TFA] |
| 7.19 | 7.00 | CC(C)Oc1ccc(S(N)(=O)=O)cc1Nc1nc(-c2ccc(N3CCNC(C)(C)C3)nc2)cs1 [Example 69, 3-((4-(6-(3,3-Dimethylpiperazin-1-yl)pyridin-3-yl)thiazol-2-yl)amino)-4-isopropoxybenzenesulfonamide.TFA] |
| 6.60 | 6.47 | CC(C)Oc1ccc(S(N)(=O)=O)cc1Nc1nc(-c2ccc(N3CCC(O)CC3)nc2)cs1 [Example 70, 3-((4-(6-(4-Hydroxypiperidin-1-yl)pyridin-3-yl)thiazol-2-yl)amino)-4-isopropoxybenzenesulfonamide.TFA] |
| 7.12 | 6.77 | CC(C)Oc1ccc(S(N)(=O)=O)cc1Nc1nc(-c2ccc(N3CCN(CC4CC4)CC3)nc2)cs1 [Example 71, 3-((4-(6-(4-(Cyclopropylmethyl)piperazin-1-yl)pyridin-3-yl)thiazol-2-yl)amino)-4-isopropoxybenzenesulfonamide.TFA] |
| 6.96 | 6.85 | CC(C)Oc1ccc(S(N)(=O)=O)cc1Nc1nc(-c2ccc(C3=CCNCC3)nc2)cs1 [Example 72, 4-Isopropoxy-3-((4-(1′,2′,3′,6′-tetrahydro-[2,4′-bipyridin]-5-yl)thiazol-2-yl)amino)benzenesulfonamide.TFA] |
| 6.92 | 6.68 | CC(C)Oc1ccc(S(N)(=O)=O)cc1Nc1nc(-c2ccc(N3CCNC(C(N)=O)C3)nc2)cs1 (centres unmarked) [Example 73, 4-(5-(2-((2-Isopropoxy-5-sulfamoylphenyl)amino)thiazol-4-yl)pyridin-2-yl)piperazine-2-carboxamide.TFA] |
|  | 6.51 | CC(C)Oc1ccc(S(N)(=O)=O)cc1Nc1nc(-c2ccc(C(=O)NCC3CCN(C)CC3)nc2)cs1 [Example 95, 5-(2-((2-Isopropoxy-5-sulfamoylphenyl)amino)thiazol-4-yl)-N-((1-methylpiperidin-4-yl)methyl)picolinamide.TFA] |
| 4.02 |  | CC(C)Oc1ccc(S(N)(=O)=O)cc1Nc1nc(-c2ccnc(Cl)c2)cs1 [Intermediate 9, 3-[4-(2-Chloro-pyridin-4-yl)-thiazol-2-ylamino]-4-isopropoxy-benzenesulfonamide.TFA] |
